ChEMBL document CHEMBL1136372, “Antibacterial activity of quinolone-macrocycle conjugates” (2003)
≈ marks a conversion by molar mass, not a printed value. Blank lines part the entries; values can stand above or below the compound they belong to.

Assays:
Staphylococcus aureus = assay: Minimum inhibitory concentration (MIC) against Staphylococcus aureus ATCC 13709; format: functional
Escherichia coli = assay: Minimum inhibitory concentration against Escherichia coli ATCC 25922; format: functional

Structure (SMILES): CCn1cc(C(=O)Nc2ccc3c(c2)C(=O)NCCC(=O)N[C@H](CCN)C(=O)N[C@@H](Cc2ccc(O)cc2)CO3)c(=O)c2ccc(C)nc21
MIC (Staphylococcus aureus): > 100 µM
MIC (Escherichia coli): 50 µM (≈ 33.5 µg/mL)

Structure (SMILES): CCN1CC(C(=O)Nc2ccc3c(c2)C(=O)NCCC(=O)N[C@@H](CCN)C(=O)N[C@H](Cc2ccc(O)cc2)CO3)C(=O)c2ccc(C)nc21 (some centres not stated)
MIC (Staphylococcus aureus): > 100 µM
MIC (Escherichia coli): 50 µM (≈ 33.6 µg/mL)

Structure (SMILES): CCn1cc(C(=O)Nc2ccc3c(c2)C(=O)NCCC(=O)N[C@H](CCN)C(=O)N[C@H](Cc2ccc(O)cc2)CO3)c(=O)c2ccc(C)nc21
MIC (Staphylococcus aureus): > 100 µM
MIC (Escherichia coli): 50 µM (≈ 33.5 µg/mL)

Structure (SMILES): NCC[C@@H]1NC(=O)CCNC(=O)c2cc(NC(=O)c3cnc4ccccc4c3)ccc2OC[C@@H](Cc2ccc(O)cc2)NC1=O
MIC (Staphylococcus aureus): > 100 µM
MIC (Escherichia coli): > 100 µM

Structure (SMILES): CCn1cc(C(=O)Nc2ccc3c(c2)C(=O)NCCC(=O)N[C@@H](CCN)C(=O)N[C@@H](Cc2ccccc2)CO3)c(=O)c2ccc(C)nc21
MIC (Staphylococcus aureus): > 100 µM
MIC (Escherichia coli): 50 µM (≈ 32.7 µg/mL)

Structure (SMILES): CCn1cc(C(=O)Nc2ccc3c(c2)C(=O)NCCC(=O)N[C@H](CCN)C(=O)N[C@H](Cc2ccccc2)CO3)c(=O)c2ccc(C)nc21
MIC (Staphylococcus aureus): > 100 µM
MIC (Escherichia coli): 50 µM (≈ 32.7 µg/mL)

Structure (SMILES): NCC[C@@H]1NC(=O)CCNC(=O)c2cc(NC(=O)c3cnccn3)ccc2OC[C@@H](Cc2ccc(O)cc2)NC1=O
MIC (Staphylococcus aureus): > 100 µM
MIC (Escherichia coli): > 100 µM

Structure (SMILES): NCC[C@@H]1NC(=O)CCNC(=O)c2cc(NC(=O)Cn3cnc4c(N)ncnc43)ccc2OC[C@@H](Cc2ccc(O)cc2)NC1=O
MIC (Staphylococcus aureus): > 100 µM
MIC (Escherichia coli): > 100 µM

Structure (SMILES): CCn1cc(C(=O)Nc2ccc3c(c2)C(=O)NCCC(=O)N[C@@H](CCN)C(=O)N[C@@H](Cc2ccc(O)cc2)CO3)c(=O)c2ccc(C)nc21
MIC (Staphylococcus aureus): > 100 µM
MIC (Escherichia coli): 50 µM (≈ 33.5 µg/mL)

Structure (SMILES): NCC[C@@H]1NC(=O)CCNC(=O)c2cc(NC(=O)Cn3cnc4c(O)nc(N)nc43)ccc2OC[C@@H](Cc2ccc(O)cc2)NC1=O
MIC (Staphylococcus aureus): > 100 µM
MIC (Escherichia coli): > 100 µM

Structure (SMILES): CCn1cc(C(=O)Nc2ccc3c(c2)C(=O)NCCC(=O)N[C@H](CCN)C(=O)N[C@@H](Cc2ccccc2)CO3)c(=O)c2ccc(C)nc21
MIC (Staphylococcus aureus): > 100 µM
MIC (Escherichia coli): 50 µM (≈ 32.7 µg/mL)

Structure (SMILES): CCN1CC(CNc2ccc3c(c2)C(=O)NCCC(=O)N[C@@H](CCN)C(=O)N[C@H](Cc2ccc(O)cc2)CO3)C(=O)c2ccc(C)nc21 (some centres not stated)
MIC (Staphylococcus aureus): > 100 µM
MIC (Escherichia coli): > 100 µM

Structure (SMILES): NCC[C@@H]1NC(=O)CCNC(=O)c2cc(NC(=O)c3ccc4ccccc4c3)ccc2OC[C@@H](Cc2ccc(O)cc2)NC1=O
MIC (Staphylococcus aureus): > 100 µM
MIC (Escherichia coli): > 100 µM

Structure (SMILES): CCn1cc(C(=O)Nc2ccc3c(c2)C(=O)NCCC(=O)N[C@@H](CCN)C(=O)N[C@H](Cc2ccccc2)CO3)c(=O)c2ccc(C)nc21
MIC (Staphylococcus aureus): > 100 µM
MIC (Escherichia coli): 50 µM (≈ 32.7 µg/mL)

Structure (SMILES): CCn1cc(C(=O)Nc2ccc3c(c2)C(=O)NCCC(=O)N[C@@H](CCN)C(=O)N[C@H](Cc2ccc(O)cc2)CO3)c(=O)c2ccc(C)nc21
MIC (Staphylococcus aureus): > 100 µM
MIC (Escherichia coli): 50 µM (≈ 33.5 µg/mL)

Structure (SMILES): O=C(O)c1cn(C2CC2)c2cc(N3CCNCC3)c(F)cc2c1=O [CIPROFLOXACIN]
MIC (Staphylococcus aureus): 0.6 µM (≈ 0.199 µg/mL)
MIC (Escherichia coli): 0.08 µM (≈ 0.0265 µg/mL)

Structure (SMILES): CCn1cc(C(=O)O)c(=O)c2ccc(C)nc21 [NALIDIXIC ACID]
MIC (Staphylococcus aureus): 75 µM (≈ 17.4 µg/mL)
MIC (Escherichia coli): 3 µM (≈ 0.697 µg/mL)

Structure (SMILES): CC1COc2c(N3CCN(C)CC3)c(F)cc3c(=O)c(C(=O)O)cn1c23 (configuration not stated) [OFLOXACIN]
MIC (Staphylococcus aureus): 25 µM (≈ 9.03 µg/mL)
MIC (Escherichia coli): 0.78 µM (≈ 0.282 µg/mL)

Second part, the compound after the results:

MIC (Staphylococcus aureus): 13 µM (≈ 10.4 µg/mL)
MIC (Escherichia coli): 3 µM (≈ 2.4 µg/mL)
Structure (SMILES): CC1COc2c(N3CCN(C)CC3)c(F)cc3c2N1CC(C(=O)Nc1ccc2c(c1)C(=O)NCCC(=O)N[C@@H](CCN)C(=O)N[C@H](Cc1ccc(O)cc1)CO2)C3=O (some centres not stated)

MIC (Staphylococcus aureus): 1.6 µM (≈ 1.26 µg/mL)
MIC (Escherichia coli): 0.2 µM (≈ 0.157 µg/mL)
Structure (SMILES): CN1CCN(c2cc3c(cc2F)C(=O)C(C(=O)Nc2ccc4c(c2)C(=O)NCCC(=O)N[C@@H](CCN)C(=O)N[C@H](Cc2ccc(O)cc2)CO4)CN3C2CC2)CC1 (some centres not stated)

MIC (Staphylococcus aureus): 50 µM (≈ 43.6 µg/mL)
MIC (Escherichia coli): 6 µM (≈ 5.23 µg/mL)
Structure (SMILES): CC1COc2c(N3CCN(C)CC3)c(F)cc3c2N1CC(C(=O)N(C)CC(=O)Nc1ccc2c(c1)C(=O)NCCC(=O)N[C@@H](CCN)C(=O)N[C@H](Cc1ccc(O)cc1)CO2)C3=O (some centres not stated)

MIC (Staphylococcus aureus): 13 µM (≈ 11.3 µg/mL)
MIC (Escherichia coli): 3 µM (≈ 2.62 µg/mL)
Structure (SMILES): CC1COc2c(N3CCN(C)CC3)c(F)cc3c2N1CC(C(=O)NCCC(=O)Nc1ccc2c(c1)C(=O)NCCC(=O)N[C@@H](CCN)C(=O)N[C@H](Cc1ccc(O)cc1)CO2)C3=O (some centres not stated)

MIC (Staphylococcus aureus): 25 µM (≈ 22.1 µg/mL)
MIC (Escherichia coli): 3 µM (≈ 2.66 µg/mL)
Structure (SMILES): CC1COc2c(N3CCN(C)CC3)c(F)cc3c2N1CC(C(=O)NCCCC(=O)Nc1ccc2c(c1)C(=O)NCCC(=O)N[C@@H](CCN)C(=O)N[C@H](Cc1ccc(O)cc1)CO2)C3=O (some centres not stated)

MIC (Staphylococcus aureus): 50 µM (≈ 42.9 µg/mL)
MIC (Escherichia coli): 3 µM (≈ 2.57 µg/mL)
Structure (SMILES): CC1COc2c(N3CCN(C)CC3)c(F)cc3c2N1CC(C(=O)NCC(=O)Nc1ccc2c(c1)C(=O)NCCC(=O)N[C@@H](CCN)C(=O)N[C@H](Cc1ccc(O)cc1)CO2)C3=O (some centres not stated)

MIC (Staphylococcus aureus): 25 µM (≈ 22.5 µg/mL)
MIC (Escherichia coli): 3 µM (≈ 2.7 µg/mL)
Structure (SMILES): CC1COc2c(N3CCN(C)CC3)c(F)cc3c2N1CC(C(=O)NCCCCC(=O)Nc1ccc2c(c1)C(=O)NCCC(=O)N[C@@H](CCN)C(=O)N[C@H](Cc1ccc(O)cc1)CO2)C3=O (some centres not stated)

MIC (Staphylococcus aureus): 25 µM (≈ 22.9 µg/mL)
MIC (Escherichia coli): 3 µM (≈ 2.74 µg/mL)
Structure (SMILES): CC1COc2c(N3CCN(C)CC3)c(F)cc3c2N1CC(C(=O)NCCCCCC(=O)Nc1ccc2c(c1)C(=O)NCCC(=O)N[C@@H](CCN)C(=O)N[C@H](Cc1ccc(O)cc1)CO2)C3=O (some centres not stated)
